A short description of test [1]: Inhibitory activity against yeast alpha-glucosidase; mild activity observed. As to conditions: Saccharomyces cerevisiae.
For test [2], the target named is Sucrase-isomaltase, intestinal (Rattus norvegicus) (UniProt P23739). The test can be described thus: Inhibitory activity against rat alpha-glucosidase; mild activity observed.
Test [3] in a line: Inhibitory activity against yeast alpha-glucosidase; active. The note with it: Saccharomyces cerevisiae.
For test [4], the target named is Sucrase-isomaltase, intestinal (Rattus norvegicus) (UniProt P23739). The test can be described thus: Inhibitory activity against rat alpha-glucosidase; moderate activity observed.

SMILES strings stand for the structures. The source made the active and inactive calls. The rule behind the calls is not given here.

Sucrase-isomaltase, intestinal (Rattus norvegicus), sequence (P23739 1-1013 limits assumed): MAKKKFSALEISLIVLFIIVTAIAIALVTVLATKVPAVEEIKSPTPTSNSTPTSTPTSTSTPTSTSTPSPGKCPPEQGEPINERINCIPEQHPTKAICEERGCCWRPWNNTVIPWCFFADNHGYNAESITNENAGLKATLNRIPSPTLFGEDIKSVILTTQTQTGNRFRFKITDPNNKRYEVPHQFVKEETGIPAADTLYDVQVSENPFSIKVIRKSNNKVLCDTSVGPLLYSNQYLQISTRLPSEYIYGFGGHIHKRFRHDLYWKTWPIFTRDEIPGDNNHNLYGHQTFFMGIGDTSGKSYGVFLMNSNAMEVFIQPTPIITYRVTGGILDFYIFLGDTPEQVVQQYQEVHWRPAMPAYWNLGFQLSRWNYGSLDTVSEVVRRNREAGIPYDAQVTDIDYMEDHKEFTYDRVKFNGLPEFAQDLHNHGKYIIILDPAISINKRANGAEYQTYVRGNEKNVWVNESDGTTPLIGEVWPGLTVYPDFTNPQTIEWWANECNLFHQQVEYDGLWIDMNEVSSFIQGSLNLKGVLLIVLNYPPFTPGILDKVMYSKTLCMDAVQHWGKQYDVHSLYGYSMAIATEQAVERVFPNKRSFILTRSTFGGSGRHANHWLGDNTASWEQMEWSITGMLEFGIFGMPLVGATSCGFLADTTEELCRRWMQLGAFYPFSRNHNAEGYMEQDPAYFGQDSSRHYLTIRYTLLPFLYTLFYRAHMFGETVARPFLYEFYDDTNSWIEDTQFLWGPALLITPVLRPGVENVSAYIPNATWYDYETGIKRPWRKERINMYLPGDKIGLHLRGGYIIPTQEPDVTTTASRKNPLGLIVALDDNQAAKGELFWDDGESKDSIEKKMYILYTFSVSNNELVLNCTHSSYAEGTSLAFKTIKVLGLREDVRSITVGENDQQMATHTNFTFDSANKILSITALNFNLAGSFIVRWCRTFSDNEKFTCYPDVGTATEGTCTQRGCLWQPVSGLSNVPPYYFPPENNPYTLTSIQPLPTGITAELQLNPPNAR
Sucrase-isomaltase, intestinal (Rattus norvegicus), sequence (P23739 1014-1841 limits assumed): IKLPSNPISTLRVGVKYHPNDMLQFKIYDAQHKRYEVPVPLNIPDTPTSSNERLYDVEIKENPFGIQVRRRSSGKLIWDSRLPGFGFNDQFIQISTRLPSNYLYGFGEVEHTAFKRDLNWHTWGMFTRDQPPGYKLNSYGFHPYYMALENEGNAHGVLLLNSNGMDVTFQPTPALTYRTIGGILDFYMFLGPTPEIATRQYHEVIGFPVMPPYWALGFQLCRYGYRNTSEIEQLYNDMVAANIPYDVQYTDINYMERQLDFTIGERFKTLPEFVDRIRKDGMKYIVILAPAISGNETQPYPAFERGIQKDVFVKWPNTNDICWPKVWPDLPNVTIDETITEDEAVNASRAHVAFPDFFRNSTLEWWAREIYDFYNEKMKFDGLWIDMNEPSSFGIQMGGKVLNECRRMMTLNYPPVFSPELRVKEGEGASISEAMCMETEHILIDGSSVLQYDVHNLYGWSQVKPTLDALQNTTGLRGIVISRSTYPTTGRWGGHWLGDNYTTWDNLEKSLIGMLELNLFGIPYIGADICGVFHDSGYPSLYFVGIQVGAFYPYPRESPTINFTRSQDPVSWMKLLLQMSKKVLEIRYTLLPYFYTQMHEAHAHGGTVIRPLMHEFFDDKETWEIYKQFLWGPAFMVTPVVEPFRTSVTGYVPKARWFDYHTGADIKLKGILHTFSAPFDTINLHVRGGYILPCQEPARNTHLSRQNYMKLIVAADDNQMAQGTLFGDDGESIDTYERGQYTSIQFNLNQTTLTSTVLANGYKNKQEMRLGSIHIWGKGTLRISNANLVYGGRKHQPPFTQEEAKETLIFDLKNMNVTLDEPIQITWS

With `COc1cc(O)c2c(c1)C(=O)c1cc(C)cc(O)c1C2=O`, the inhibition result in test [1] and in test [2] was “Weak activity” in each case.
Regarding `Cc1cc(O)c2c(c1)C(=O)c1cccc(O[C@@H]3C[C@H](CO)[C@@H](O)[C@H](O)[C@H]3O)c1C2=O`, the inhibition result in test [3] was “Active”. Besides, in test [4], the inhibition result is on record as “moderate activity observed”.
Consider `COc1ccc(/C=C/c2cc(O)cc(O[C@@H]3C[C@H](CO)[C@@H](O)[C@H](O)[C@H]3O)c2)cc1`, for which the inhibition result in test [2] is “Weak activity”.
Turning to `Cc1cc(=O)c2c(O)cc(O)cc2o1`, the inhibition result in test [1] and in test [2] was “Weak activity” throughout.
With `COc1cc(O[C@@H]2C[C@H](CO)[C@@H](O)[C@H](O)[C@H]2O)c2c(O)c(C(C)=O)c(C)cc2c1`, in test [3], the inhibition entry was “Active”. Moreover, in test [4], the inhibition result is reported as “moderate activity observed”.
Take `COc1ccc(/C=C/c2cc(O)cc(O)c2)cc1O`: in test [3], the inhibition result was “Active”.

Source of the values: ChEMBL document CHEMBL1146818, “Yeast and mammalian alpha-glucosidase inhibitory constituents from Himalayan rhubarb Rheum emodi Wall.ex Meisson” (Bioorg Med Chem Lett, 2004).
